Measurements reported in patent US20260000642A1 (Tay Therapeutics Limited, priority 2022, published 2026).
“And” between values parts separate entries of the source, which are not always exact repeats. Equal entries are not always repeated.

Test system: collagen-induced arthritis in Lewis rats
Assay: Collagen-induced arthritis (CIA) model in rats: body weight, paw volume, clinical scores, clinical observations; for Detailed Clinical Scores, left forelimb: key of the grades not given here; for Detailed Clinical Scores, left hind limb: key of the grades not given here; for Detailed Clinical Scores, right forelimb: key of the grades not given here; for Detailed Clinical Scores, right hind limb: key of the grades not given here; for Detailed Clinical Scores, score: key of the grades not given here
Conditions: for Detailed Clinical Scores, left forelimb / Detailed Clinical Scores, left hind limb / Detailed Clinical Scores, right forelimb / Detailed Clinical Scores, right hind limb / Detailed Clinical Scores, score: CIA, per animal ID
[1] = CIA rats, 10 mg/kg, individual animals
[2] = CIA rats, 30 mg/kg, individual animals
[3] = CIA rats, 3 mg/kg twice daily for 21 days
[4] = CIA rats, 30 mg/kg twice daily for 21 days

CNC(=O)c1[nH]c(C(=O)NC2CCC2)cc1O[C@@H](C)c1ccccc1 [Example 101, N^5-cyclobutyl-N^2-methyl-3-(1-phenylethoxy)-1H-pyrrole-2,5-dicarboxamide]
amelioration of clinical symptoms associated with CIA (3 mg/kg, 10 mg/kg and 30 mg/kg twice daily): dose-dependent effect | Clinical Observation Day 15 [1]: Diarrhea | Clinical Observation Day 19 [1]: Diarrhea | Clinical Observation Day 12 [2]: Diarrhea | Clinical Observation Day 13 [2]: Diarrhea | Clinical Observation Day 16 [2]: Diarrhea | Clinical Observation Day 18 [2]: Diarrhea | Clinical Observation Day 19 [2]: Diarrhea | Clinical Observation Day 21 [2]: Diarrhea | diarrhea over the 21-day period (CIA rats, 3 mg/kg twice daily): did not have diarrhea | effect on hind paw volume relative to CIA + vehicle (group 2) [3]: less effective at preventing an increase in paw volume | increase in body weight, day 21 compared to day 0 [3]: 1.7% | animals that gained weight by the end of the study (of 8) (CIA rats, 3 mg/kg twice daily for 21 days (group 5)): 7/8 | animals showing signs of disease (of 8) (CIA rats, 3 mg/kg twice daily, day 12): Three animals | animals showing signs of disease (of 8) (CIA rats, 3 mg/kg twice daily, day 14): all animals | diarrhea over the 21-day period (CIA rats, 10 mg/kg twice daily (group 6)): Two different animals | weight change, day 21 compared to day 0 (CIA rats, 10 mg/kg twice daily for 21 days): approximately 0.5% | animals that gained weight by the end of the study (of 8) (CIA rats, 10 mg/kg twice daily for 21 days (group 6)): 3/8 | effect on hind paw volume relative to CIA + vehicle (group 2) (CIA rats, 10 mg/kg twice daily for 21 days, both paws, p<0.05): significantly decreased relative to group 2 on days 19 and 21 | animals showing signs of disease (of 8) (CIA rats, 10 mg/kg twice daily, day 19): all animals | diarrhea over the 21-day period (CIA rats, 30 mg/kg twice daily (group 7)): Four different animals | effect on hind paw volume relative to CIA + vehicle (group 2) [4]: most effective dose at preventing an increase in paw volume | weight change, day 21 compared to day 0 [4]: approximately 0.5% | animals that gained weight by the end of the study (of 8) (CIA rats, 30 mg/kg twice daily for 21 days (group 7)): 3/8 | animals showing signs of disease (of 8) (CIA rats, 30 mg/kg twice daily, day 12): One animal | hind paw volume increase at plateau relative to day 0 (CIA rats, 30 mg/kg twice daily, increase from around day 19): approximately 35% | Detailed Clinical Scores, left forelimb (Day 0, 3 mg/kg): 0 | Detailed Clinical Scores, left hind limb (Day 0, 3 mg/kg): 0 | Detailed Clinical Scores, right forelimb (Day 0, 3 mg/kg): 0 | Detailed Clinical Scores, right hind limb (Day 0, 3 mg/kg): 0 | Detailed Clinical Scores, score (Day 0, 3 mg/kg): 0 | Detailed Clinical Scores, left forelimb (Day 0, 10 mg/kg): 0 | Detailed Clinical Scores, left hind limb (Day 0, 10 mg/kg): 0 | Detailed Clinical Scores, right forelimb (Day 0, 10 mg/kg): 0 | Detailed Clinical Scores, right hind limb (Day 0, 10 mg/kg): 0 | Detailed Clinical Scores, score (Day 0, 10 mg/kg): 0 | Detailed Clinical Scores, left forelimb (Day 0, 30 mg/kg): 0 | Detailed Clinical Scores, left hind limb (Day 0, 30 mg/kg): 0 | Detailed Clinical Scores, right forelimb (Day 0, 30 mg/kg): 0 | Detailed Clinical Scores, right hind limb (Day 0, 30 mg/kg): 0 | Detailed Clinical Scores, score (Day 0, 30 mg/kg): 0 | Average animal body weight percent change (Day 0, CIA + 3 mg/kg): 0.00% | Mean animal body weight (Day 0, CIA + 3 mg/kg): 165 g | Average animal body weight percent change (Day 0, CIA + 10 mg/kg): 0.00% | Mean animal body weight (Day 0, CIA + 10 mg/kg): 162 g | Average animal body weight percent change (Day 0, CIA + 30 mg/kg): 0.00% | Mean animal body weight (Day 0, CIA + 30 mg/kg): 162 g | Average animal body weight percent change (Day 1, CIA + 3 mg/kg): −0.49% | Mean animal body weight (Day 1, CIA + 3 mg/kg): 164 g | Average animal body weight percent change (Day 1, CIA + 10 mg/kg): −1.45% | Mean animal body weight (Day 1, CIA + 10 mg/kg): 160 g | Average animal body weight percent change (Day 1, CIA + 30 mg/kg): −0.83% | Mean animal body weight (Day 1, CIA + 30 mg/kg): 161 g | Average animal body weight percent change (Day 2, CIA + 3 mg/kg): −0.15% | Mean animal body weight (Day 2, CIA + 3 mg/kg): 165 g | Average animal body weight percent change (Day 2, CIA + 10 mg/kg): −1.29% | Mean animal body weight (Day 2, CIA + 10 mg/kg): 160 g | Average animal body weight percent change (Day 2, CIA + 30 mg/kg): −1.03% | Mean animal body weight (Day 2, CIA + 30 mg/kg): 160 g | Average animal body weight percent change (Day 3, CIA + 3 mg/kg): 1.01% | Mean animal body weight (Day 3, CIA + 3 mg/kg): 167 g | Average animal body weight percent change (Day 3, CIA + 10 mg/kg): 0.91% | Mean animal body weight (Day 3, CIA + 10 mg/kg): 164 g | Average animal body weight percent change (Day 3, CIA + 30 mg/kg): −1.32% | Mean animal body weight (Day 3, CIA + 30 mg/kg): 160 g | Average animal body weight percent change (Day 4, CIA + 3 mg/kg): 0.94% | Mean animal body weight (Day 4, CIA + 3 mg/kg): 166 g | Average animal body weight percent change (Day 4, CIA + 10 mg/kg): 0.99% | Mean animal body weight (Day 4, CIA + 10 mg/kg): 164 g | Average animal body weight percent change (Day 4, CIA + 30 mg/kg): 0.47% | Mean animal body weight (Day 4, CIA + 30 mg/kg): 163 g | Average animal body weight percent change (Day 5, CIA + 3 mg/kg): 1.81% | Mean animal body weight (Day 5, CIA + 3 mg/kg): 168 g | Average animal body weight percent change (Day 5, CIA + 10 mg/kg): 1.43% | Mean animal body weight (Day 5, CIA + 10 mg/kg): 165 g | Average animal body weight percent change (Day 5, CIA + 30 mg/kg): 0.90% | Mean animal body weight (Day 5, CIA + 30 mg/kg): 163 g | Detailed Clinical Scores, left forelimb (Day 6, 3 mg/kg): 0 | Detailed Clinical Scores, right forelimb (Day 6, 3 mg/kg): 0 | Detailed Clinical Scores, right hind limb (Day 6, 3 mg/kg): 0 | Detailed Clinical Scores, left forelimb (Day 6, 10 mg/kg): 0 | Detailed Clinical Scores, left hind limb (Day 6, 10 mg/kg): 0 | Detailed Clinical Scores, right forelimb (Day 6, 10 mg/kg): 0 | Detailed Clinical Scores, right hind limb (Day 6, 10 mg/kg): 0 | Detailed Clinical Scores, score (Day 6, 10 mg/kg): 0 | Detailed Clinical Scores, left forelimb (Day 6, 30 mg/kg): 0 | Detailed Clinical Scores, left hind limb (Day 6, 30 mg/kg): 0 | Detailed Clinical Scores, right forelimb (Day 6, 30 mg/kg): 0 | Detailed Clinical Scores, right hind limb (Day 6, 30 mg/kg): 0 | Detailed Clinical Scores, score (Day 6, 30 mg/kg): 0 | Average animal body weight percent change (Day 6, CIA + 3 mg/kg): 3.40% | Mean animal body weight (Day 6, CIA + 3 mg/kg): 171 g | Average animal body weight percent change (Day 6, CIA + 10 mg/kg): 1.77% | Mean animal body weight (Day 6, CIA + 10 mg/kg): 165 g | Average animal body weight percent change (Day 6, CIA + 30 mg/kg): 0.03% | Mean animal body weight (Day 6, CIA + 30 mg/kg): 162 g | Average animal body weight percent change (Day 7, CIA + 3 mg/kg): 4.80% | Mean animal body weight (Day 7, CIA + 3 mg/kg): 173 g | Average animal body weight percent change (Day 7, CIA + 10 mg/kg): 2.23% | Mean animal body weight (Day 7, CIA + 10 mg/kg): 166 g | Average animal body weight percent change (Day 7, CIA + 30 mg/kg): 0.29% | Mean animal body weight (Day 7, CIA + 30 mg/kg): 162 g | Average animal body weight percent change (Day 8, CIA + 3 mg/kg): 4.69% | Mean animal body weight (Day 8, CIA + 3 mg/kg): 173 g | Average animal body weight percent change (Day 8, CIA + 10 mg/kg): 2.82% | Mean animal body weight (Day 8, CIA + 10 mg/kg): 167 g | Average animal body weight percent change (Day 8, CIA + 30 mg/kg): 1.21% | Mean animal body weight (Day 8, CIA + 30 mg/kg): 164 g | Average animal body weight percent change (Day 9, CIA + 3 mg/kg): 5.59% | Mean animal body weight (Day 9, CIA + 3 mg/kg): 174 g | Average animal body weight percent change (Day 9, CIA + 10 mg/kg): 4.86% | Mean animal body weight (Day 9, CIA + 10 mg/kg): 170 g | Average animal body weight percent change (Day 9, CIA + 30 mg/kg): 2.81% | Mean animal body weight (Day 9, CIA + 30 mg/kg): 166 g | Average animal body weight percent change (Day 10, CIA + 3 mg/kg): 6.84% | Mean animal body weight (Day 10, CIA + 3 mg/kg): 176 g | Average animal body weight percent change (Day 10, CIA + 10 mg/kg): 4.86% | Mean animal body weight (Day 10, CIA + 10 mg/kg): 170 g | Average animal body weight percent change (Day 10, CIA + 30 mg/kg): 2.27% | Mean animal body weight (Day 10, CIA + 30 mg/kg): 166 g | Average animal body weight percent change (Day 11, CIA + 3 mg/kg): 7.79% | Mean animal body weight (Day 11, CIA + 3 mg/kg): 178 g | Average animal body weight percent change (Day 11, CIA + 10 mg/kg): 5.09% | Mean animal body weight (Day 11, CIA + 10 mg/kg): 171 g | Average animal body weight percent change (Day 11, CIA + 30 mg/kg): 2.22% | Mean animal body weight (Day 11, CIA + 30 mg/kg): 165 g | Detailed Clinical Scores, left forelimb (Day 12, 3 mg/kg): 0 | Detailed Clinical Scores, left hind limb (Day 12, 3 mg/kg, 3 mg/kg): 1 | Detailed Clinical Scores, right forelimb (Day 12, 3 mg/kg, 3 mg/kg): 0 (6×) and 1 (2×) | Detailed Clinical Scores, left forelimb (Day 12, 10 mg/kg): 0 | Detailed Clinical Scores, right forelimb (Day 12, 10 mg/kg): 0 | Detailed Clinical Scores, left hind limb (Day 12, 10 mg/kg, 10 mg/kg): 1 (2×) and 0 (2×) | Detailed Clinical Scores, right hind limb (Day 12, 10 mg/kg, 10 mg/kg): 2 and 0 (2×) | Detailed Clinical Scores, score (Day 12, 10 mg/kg, 10 mg/kg): 1 (2×) and 2 and 0 | Detailed Clinical Scores, left forelimb (Day 12, 30 mg/kg): 0 | Detailed Clinical Scores, left hind limb (Day 12, 30 mg/kg): 0 | Detailed Clinical Scores, right forelimb (Day 12, 30 mg/kg): 0 | Detailed Clinical Scores, right hind limb (Day 12, 30 mg/kg, 30 mg/kg): 1 and 0 (5×) | Detailed Clinical Scores, score (Day 12, 30 mg/kg, 30 mg/kg): 1 and 0 (4×) | Average animal body weight percent change (Day 12, CIA + 3 mg/kg): 8.18% | Mean animal body weight (Day 12, CIA + 3 mg/kg): 178 g | Average animal body weight percent change (Day 12, CIA + 10 mg/kg): 4.18% | Mean animal body weight (Day 12, CIA + 10 mg/kg): 169 g
